Assay results as given in paper PMC6159918 (Peptides, 2018).
Where two headings read alike, the source gives them in different places.

Experiments:
human BRS-3-receptor [1] = target: T1, human BRS-3-receptor (Homo sapiens, UniProt P32247); assay: p42/44 MAPK phosphorylation; assay type: cell-based; settings: for EC50: EC50, p42/44 phosphorylation; for P-p42/44 (Exp/control): MK-5046 10 nM, 3 min
T1 sequence (P32247 1-399): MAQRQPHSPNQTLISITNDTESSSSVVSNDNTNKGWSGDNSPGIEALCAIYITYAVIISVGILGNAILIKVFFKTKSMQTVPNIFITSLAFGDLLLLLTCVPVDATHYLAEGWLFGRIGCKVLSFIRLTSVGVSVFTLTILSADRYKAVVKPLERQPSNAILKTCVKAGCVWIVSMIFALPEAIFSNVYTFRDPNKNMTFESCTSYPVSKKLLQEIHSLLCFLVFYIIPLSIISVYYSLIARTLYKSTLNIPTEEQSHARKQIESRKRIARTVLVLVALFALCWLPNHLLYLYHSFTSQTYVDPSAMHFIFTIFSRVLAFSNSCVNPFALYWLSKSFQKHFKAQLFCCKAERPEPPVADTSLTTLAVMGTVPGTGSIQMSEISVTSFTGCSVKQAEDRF

human BRS-3-receptor [2] = target: T1, human BRS-3-receptor; assay: [3H]-inositol phosphates; assay type: cell-based; settings: for EC50: EC50, release of [3H]IP; for [3H]IP (Exp/control) / [3H]IP (DPM): MK-5046 10 nM
human BRS-3-receptor [3] = target: T1, human BRS-3-receptor; assay: Cytosolic Ca2+; assay type: cell-based; settings: MK-5046 10 nM
BRS-3/Balb cells = settings: 24 h serum-free, Balb-3T3 BRS-3-transfected
human lung-cancer cells = assay: cells; assay type: cell-based; settings: for EC50: Homo sapiens; for [3H]-Thymidine Incorporation (Exp/control): 24 h serum-free

Compound: O[C@@](Cc1nc(CC2(C(F)(F)F)CC2)c[nH]1)(c1ccc(-n2cccn2)cc1)C(F)(F)F [MK-5046, (2S)-1,1,1-trifluoro-2-[4-(1H-pyrazol-1-yl)phenyl]-3-(4-[[1-(trifluoromethyl)cyclopropyl]methyl]-1H-imidazol-2-yl)propan-2-ol]
- dose-response curve shape, p42/44 phosphorylation (human BRS-3-receptor [1]; BRS-3/H1299-transfected-cells): monophasic
- EC50 (human BRS-3-receptor [1]; BRS-3/H1299-cells): 1.9 ± 0.16 nM
- EC50 (human BRS-3-receptor [1]; NCI-H69): 0.12 ± 0.01 nM
- EC50 (human BRS-3-receptor [1]; NCI-H82): 1.08 ± 0.16 nM
- EC50 (human BRS-3-receptor [1]; NCI-H720): 1.14 ± 0.57 nM
- EC50 (human BRS-3-receptor [1]; NCI-H727): 0.02 ± 0.01 nM
- EC50 (human BRS-3-receptor [1]; NCI-N417): 0.02 ± 0.01 nM
- P-p42/44 (Exp/control) (human BRS-3-receptor [1]; Balb-3T3 BRS-3 transfected): 1.85 ± 0.21 Exp/control
- P-p42/44 (Exp/control) (human BRS-3-receptor [1]; NCI-H69 (SCLC)): 1.95 ± 0.18 Exp/control
- P-p42/44 (Exp/control) (human BRS-3-receptor [1]; NCI-H82 (SCLC)): 1.50 ± 0.10 Exp/control
- P-p42/44 (Exp/control) (human BRS-3-receptor [1]; NCI-H358 (NSCLC)): 2.33 ± 0.34 Exp/control
- P-p42/44 (Exp/control) (human BRS-3-receptor [1]; NCI-H460 (NSCLC)): 1.07 ± 0.16 Exp/control
- P-p42/44 (Exp/control) (human BRS-3-receptor [1]; NCI-H510 (SCLC)): 2.22 ± 0.13 Exp/control
- P-p42/44 (Exp/control) (human BRS-3-receptor [1]; NCI-H520 (NSCLC)): 1.88 ± 0.24 Exp/control
- P-p42/44 (Exp/control) (human BRS-3-receptor [1]; NCI-H720 (carcinoid)): 2.53 ± 0.39 Exp/control
- P-p42/44 (Exp/control) (human BRS-3-receptor [1]; NCI-H727 (carcinoid)): 2.41 ± 0.34 Exp/control
- P-p42/44 (Exp/control) (human BRS-3-receptor [1]; NCI-H1299 BRS-3 transfected): 1.54 ± 0.28 Exp/control
- P-p42/44 (Exp/control) (human BRS-3-receptor [1]; NCI-N417 (SCLC)): 1.64 ± 0.25 Exp/control
- decrease in p42/44-phosphorylation at supramaximal concentrations (human BRS-3-receptor [1]; NCI-H82-cells, p < 0.002): 50 ± 7%
- decrease in p42/44-phosphorylation at supramaximal concentrations (human BRS-3-receptor [1]; NCI-H727-cells, p < 0.0001): 49 ± 9%
- decrease in p42/44-phosphorylation at supramaximal concentrations (human BRS-3-receptor [1]; NCI-N417, p < 0.0001): 29 ± 6%
- dose-response curve shape, p42/44 phosphorylation (human BRS-3-receptor [1]; all the cells (NCI-H727, NCI-H720, NCI-H69, NCI-H82, NCI-N417) except BRS-3/H1299): biphasic
- Emax at 1 µM (human BRS-3-receptor [1]; read-out: maximal stimulation of p42/44-MAPK phosphorylation): 96 ± 7%
- greatest [3H]IP-increase in IP-production (human BRS-3-receptor [2]; BRS-3/H1299-cells): 8 fold
- EC50 (human BRS-3-receptor [2]; BRS-3/H1299 cells): 0.37 ± 0.04 nM
- EC50 (human BRS-3-receptor [2]; NCI-H69 cells): 3.29 ± 0.54 nM
- EC50 (human BRS-3-receptor [2]; NCI-H720 cells): 0.14 ± 0.05 nM
- decrease in [3H]IP-release at supramaximal concentrations (human BRS-3-receptor [2]; H720 cells, p < 0.05): 28%
- [3H]IP (Exp/control) (human BRS-3-receptor [2]; Balb-3T3 BRS-3 transfected): 7.50 ± 0.68 Exp/control
- [3H]IP (DPM) (human BRS-3-receptor [2]; Balb-3T3 BRS-3 transfected, control 2487 ± 185): 18657 ± 1698 DPM
- [3H]IP (Exp/control) (human BRS-3-receptor [2]; NCI-H69 (SCLC)): 3.38 ± 0.17 Exp/control
- [3H]IP (DPM) (human BRS-3-receptor [2]; NCI-H69 (SCLC), control 177 ± 27): 597 ± 29 DPM
- [3H]IP (Exp/control) (human BRS-3-receptor [2]; NCI-H82 (SCLC)): 2.09 ± 0.33 Exp/control
- [3H]IP (Exp/control) (human BRS-3-receptor [2]; NCI-H358 (NSCLC)): 1.50 ± 0.15 Exp/control
- [3H]IP (Exp/control) (human BRS-3-receptor [2]; NCI-H460 (NSCLC)): 1.63 ± 0.18 Exp/control
- [3H]IP (Exp/control) (human BRS-3-receptor [2]; NCI-H510 (SCLC)): 1.12 ± 0.05 Exp/control
- [3H]IP (Exp/control) (human BRS-3-receptor [2]; NCI-H520 (NSCLC)): 1.84 ± 0.36 Exp/control
- [3H]IP (Exp/control) (human BRS-3-receptor [2]; NCI-H720 (carcinoid)): 1.64 ± 0.22 Exp/control
- [3H]IP (Exp/control) (human BRS-3-receptor [2]; NCI-H727 (carcinoid)): 2.59 ± 0.22 Exp/control
- [3H]IP (DPM) (human BRS-3-receptor [2]; NCI-H727 (carcinoid), control 143 ± 21): 371 ± 32 DPM
- [3H]IP (Exp/control) (human BRS-3-receptor [2]; NCI-H1299 BRS-3 transfected): 7.63 ± 0.77 Exp/control
- [3H]IP (Exp/control) (human BRS-3-receptor [2]; NCI-N417 (SCLC)): 4.31 ± 1.03 Exp/control
- [3H]IP (DPM) (human BRS-3-receptor [2]; NCI-N417 (SCLC), control 660 ± 87): 2850 ± 571 DPM
- maximal stimulated [3H]IP value (human BRS-3-receptor [2]; NCI-H69 cells, 100 nM MK-5046, control 177 ± 27 dpm): 834 ± 66 dpm
- maximal stimulated [3H]IP value (human BRS-3-receptor [2]; NCI-H720 cells, 10 nM MK-5046, control 268 ± 23 dpm): 375 ± 31 dpm
- maximal stimulated [3H]IP value (human BRS-3-receptor [2]; hBRS-3-NCI-H1299 cells, 100 nM MK-5046, control 1169 ± 88 dpm): 10,144 ± 1310 dpm
- Ca2+ release (% over basal) (human BRS-3-receptor [3]; Balb-3T3 BRS-3 transfected): 7.43 ± 1.22 % over basal
- Ca2+ release (% over basal) (human BRS-3-receptor [3]; NCI-H69 (SCLC)): 3.09 ± 0.67 % over basal
- Ca2+ release (% over basal) (human BRS-3-receptor [3]; NCI-H82 (SCLC)): 9.00 ± 1.11 % over basal
- Ca2+ release (% over basal) (human BRS-3-receptor [3]; NCI-H358 (NSCLC)): 1.65 ± 0.43 % over basal
- Ca2+ release (% over basal) (human BRS-3-receptor [3]; NCI-H460 (NSCLC)): 5.77 ± 1.41 % over basal
- Ca2+ release (% over basal) (human BRS-3-receptor [3]; NCI-H510 (SCLC)): 2.94 ± 0.52 % over basal
- Ca2+ release (% over basal) (human BRS-3-receptor [3]; NCI-H520 (NSCLC)): 2.60 ± 0.40 % over basal
- Ca2+ release (% over basal) (human BRS-3-receptor [3]; NCI-H720 (carcinoid)): 2.40 ± 0.28 % over basal
- Ca2+ release (% over basal) (human BRS-3-receptor [3]; NCI-H727 (carcinoid)): 6.26 ± 1.43 % over basal
- Ca2+ release (% over basal) (human BRS-3-receptor [3]; NCI-H1299 BRS-3 transfected): 8.04 ± 0.55 % over basal
- Ca2+ release (% over basal) (human BRS-3-receptor [3]; NCI-N417 (SCLC)): 4.40 ± 0.62 % over basal
- [3H]-Thymidine Incorporation (Exp/control) (BRS-3/Balb cells; MK-5046 10 nM): 1.00 ± 0.04 Exp/control
- [3H]-Thymidine Incorporation (Exp/control) (BRS-3/Balb cells; MK-5046 1 μM): 1.24 ± 0.07 Exp/control
- EC50 (human lung-cancer cells; NCI-H69, read-out: EC50, [3H]-Thymidine-uptake): 0.27 ± 0.06 nM
- EC50 (human lung-cancer cells; NCI-H358, read-out: EC50, [3H]-Thymidine-uptake): 0.52 ± 0.07 nM
- EC50 (human lung-cancer cells; NCI-H727, read-out: EC50, [3H]-Thymidine-uptake): 0.31 ± 0.06 nM
- [3H]-Thymidine Incorporation (Exp/control) (human lung-cancer cells; MK-5046 10 nM, NCI-H69): 1.36 ± 0.09 Exp/control
- [3H]-Thymidine Incorporation (Exp/control) (human lung-cancer cells; MK-5046 10 nM, NCI-H82): 1.08 ± 0.08 Exp/control
- [3H]-Thymidine Incorporation (Exp/control) (human lung-cancer cells; MK-5046 10 nM, NCI-H358): 1.20 ± 0.05 Exp/control
- [3H]-Thymidine Incorporation (Exp/control) (human lung-cancer cells; MK-5046 10 nM, NCI-H460): 1.29 ± 0.07 Exp/control
- [3H]-Thymidine Incorporation (Exp/control) (human lung-cancer cells; MK-5046 10 nM, NCI-H510): 1.39 ± 0.04 Exp/control
- [3H]-Thymidine Incorporation (Exp/control) (human lung-cancer cells; MK-5046 10 nM, NCI-H520): 1.27 ± 0.10 Exp/control
- [3H]-Thymidine Incorporation (Exp/control) (human lung-cancer cells; MK-5046 10 nM, NCI-H720): 1.15 ± 0.04 Exp/control
- [3H]-Thymidine Incorporation (Exp/control) (human lung-cancer cells; MK-5046 10 nM, NCI-H727): 1.41 ± 0.18 Exp/control
- [3H]-Thymidine Incorporation (Exp/control) (human lung-cancer cells; MK-5046 10 nM, NCI-H1299 BRS-3-transfected): 1.41 ± 0.06 Exp/control
- [3H]-Thymidine Incorporation (Exp/control) (human lung-cancer cells; MK-5046 10 nM, NCI-N417): 1.29 ± 0.08 Exp/control
- [3H]-Thymidine Incorporation (Exp/control) (human lung-cancer cells; MK-5046 1 μM, NCI-H69): 0.76 ± 0.07 Exp/control
- [3H]-Thymidine Incorporation (Exp/control) (human lung-cancer cells; MK-5046 1 μM, NCI-H82): 1.17 ± 0.05 Exp/control
- [3H]-Thymidine Incorporation (Exp/control) (human lung-cancer cells; MK-5046 1 μM, NCI-H358): 1.15 ± 0.06 Exp/control
- [3H]-Thymidine Incorporation (Exp/control) (human lung-cancer cells; MK-5046 1 μM, NCI-H460): 1.07 ± 0.07 Exp/control
- [3H]-Thymidine Incorporation (Exp/control) (human lung-cancer cells; MK-5046 1 μM, NCI-H510): 1.36 ± 0.10 Exp/control
- [3H]-Thymidine Incorporation (Exp/control) (human lung-cancer cells; MK-5046 1 μM, NCI-H520): 1.07 ± 0.14 Exp/control
- [3H]-Thymidine Incorporation (Exp/control) (human lung-cancer cells; MK-5046 1 μM, NCI-H720): 1.17 ± 0.03 Exp/control
- [3H]-Thymidine Incorporation (Exp/control) (human lung-cancer cells; MK-5046 1 μM, NCI-H727): 1.47 ± 0.16 Exp/control
- [3H]-Thymidine Incorporation (Exp/control) (human lung-cancer cells; MK-5046 1 μM, NCI-H1299 BRS-3-transfected): 1.27 ± 0.11 Exp/control
- [3H]-Thymidine Incorporation (Exp/control) (human lung-cancer cells; MK-5046 1 μM, NCI-N417): 1.26 ± 0.07 Exp/control
- decrease in [3H]-Thymidine-uptake at supramaximal concentrations (human lung-cancer cells; NCI-H69-cells): 87%
- decrease in [3H]-Thymidine-uptake at supramaximal concentrations (human lung-cancer cells; NCI-H358-cells): 23%
